Consider two compounds from PubChem BioAssay AID1963873 (Molecular Pharmacology Branch, DTP, NCI, 2024).

In this assay the test system is 276233-004-R-J1-PDC KRAS spheroids with HUVEC/MSC, viability. Kind of assay: Anticancer human tumor 276233-004-R-J1-PDC patient-derived colon adenocarcinoma cell line growth inhibition [KRAS2]. The note with it: for viability, T/C: stronger effect = lower value. In outline:
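KRAS-mutant tumor cells were grown as spheroids with HUVEC endothelial cells and human MSCs as stroma. Targeted agents were tested alone and with KRAS pathway inhibitors. Doses started at or near clinical Cmax, or 10 microM, descending half-log.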
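Also: cells exposed to agents for seven days before viability read.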
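For viability, T/C in this document: 100% = DMSO vehicle control wells and lower values mean fewer viable cells.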

For `CCN1CCN(Cc2ccc(Nc3ncc(F)c(-c4cc(F)c5nc(C)n(C(C)C)c5c4)n3)nc2)CC1` + COc1cc2nc(C)nc(NC(C)c3cc(N)cc(C(F)(F)F)c3)c2cc1OC1CCOC1, the concentration for half-maximal inhibition (IC50) (curve of first compound, second compound 0.1 µM) is more than 1000 nM; the IC50 (curve of first compound, second compound 0.316 µM) was more than 1000 nM; the IC50 (curve of first compound, second compound 1 µM) is more than 1000 nM; the IC50 (curve of first compound, second compound 3.16 µM) is more than 1000 nM; the concentration for half-maximal inhibition (IC50) (curve of first compound, second compound 10 µM) was less than 3.16 nM. In addition, the viability, T/C was 89.2% (second compound 0.1 µM, first compound 0.00316 µM); 98.1% (second compound 0.1 µM, first compound 0.01 µM); 88.7% (second compound 0.1 µM, first compound 0.0316 µM); 84.5% (second compound 0.1 µM, first compound 0.1 µM); 91.5% (second compound 0.1 µM, first compound 0.316 µM); 115% (second compound 0.1 µM, first compound 1 µM). Also, the viability, T/C by setting is: (second compound 0.316 µM, first compound 0.00316 µM) 110%; (second compound 0.316 µM, first compound 0.01 µM) 80.9%; (second compound 0.316 µM, first compound 0.0316 µM) 82.4%; (second compound 0.316 µM, first compound 0.1 µM) 107%; (second compound 0.316 µM, first compound 0.316 µM) 98.8%; (second compound 0.316 µM, first compound 1 µM) 86.8%. Further, the viability, T/C reads like this: (second compound 1 µM, first compound 0.00316 µM) 105%; (second compound 1 µM, first compound 0.01 µM) 88%; (second compound 1 µM, first compound 0.0316 µM) 101%; (second compound 1 µM, first compound 0.1 µM) 80.2%; (second compound 1 µM, first compound 0.316 µM) 96.9%; (second compound 1 µM, first compound 1 µM) 102%. Besides, the viability, T/C reads like this: (second compound 3.16 µM, first compound 0.00316 µM) 82.2%; (second compound 3.16 µM, first compound 0.01 µM) 96.5%; (second compound 3.16 µM, first compound 0.0316 µM) 74.1%; (second compound 3.16 µM, first compound 0.1 µM) 81.1%; (second compound 3.16 µM, first compound 0.316 µM) 89.4%; (second compound 3.16 µM, first compound 1 µM) 74.3%. In addition, the viability, T/C by setting is: (second compound 10 µM, first compound 0.00316 µM) 47.1%; (second compound 10 µM, first compound 0.01 µM) 44.4%; (second compound 10 µM, first compound 0.0316 µM) 26%; (second compound 10 µM, first compound 0.1 µM) 19.7%; (second compound 10 µM, first compound 0.316 µM) 4.33%; (second compound 10 µM, first compound 1 µM) 2.22%.

Regarding `CC(=O)OC12COC1CC(O)C1(C)C(=O)C(O)C3=C(C)C(OC(=O)C(O)C(NC(=O)OC(C)(C)C)c4ccccc4)CC(O)(C(OC(=O)c4ccccc4)C21)C3(C)C` (stereo not given), the viability, T/C (compound 0.01 µM) was 90.3% [middle of 5 runs]; the viability, T/C (compound 0.316 µM) is 88.6% [middle of 5 runs]; the viability, T/C (compound 1 µM) is 94.5% [middle of 5 runs]; the viability, T/C (compound 3.16 µM) was 92.1% [middle of 5 runs]. The IC50 (curve of compound) was more than 3160 nM.

For orientation: IC50 means the concentration that gives 50% inhibition. A word on the viability, T/C: it is the result in the treated group divided by that in the control group, in per cent.
